# Measured values taken from US20210113492A1, “METHOD FOR INHIBITING PROLIFERATION AND METASTASIS OF CANCER CELLS BY USING NAPHTHOQUINONE DERIVATIVE” (National Tsing Hua University, priority 2019, published 2021).
# Key:
# [1] = tested on: human primary glioblastoma cells (U87); assay: Boyden chamber invasion assay, U87; assay type: cell-based; conditions: 2.5, 5 and 10 μM, 24 h, no dose dependency (FIG. 2B)
# Procedure: Cells were harvested by […] and resuspended in a serum-free medium with 0.1% BSA. Then, […] of cell suspension (2×10^5 cells) was seeded into the upper insert of SPLInsert with Polyethylene terephthalate (PET) membrane (pore size: 8.0 μm) (SPL Lifesciences, Korea) pre-coated with matrigel (BD Biosciences, San Jose, Calif.). The bottom well of 24-well plate of SPLInsert was filled with cell medium containing 10% FBS with different concentrations of isoplumbagin (5, 7.5 and 10 μM, Experimental group of oral squamous cell carcinoma cells (OC3-IV2); 2.5, 5 and 10 μM, Experimental groups of human primary glioblastoma cells (U87), human non-small cell lung carcinoma cells (H1299), human prostate cancer cells (PC3) and human cervical cancer cells (Hela)) or without isoplumbagin (DMSO added). […] Number of cells was counted using Image J. Relative invasion ability was calculated as cell number per area.
# FIGS. 2A-2E show the inhibitory effect of different doses of isoplumbagin on invasion for oral squamous cell carcinoma cells (OC3-IV2), human primary glioblastoma cells (U87), human non-small cell lung carcinoma cells (H1299), prostate cancer cells (PC3) and cervical cancer cells (Hela) assessed with the Boyden chamber assays. *Compared with solvent control (DMSO). […]
# NQO1 = target: T1, NQO1 (Homo sapiens, UniProt P15559); assay: NQO1 enzymatic activity assay (substrate reduction with NADH and WST1); assay type: biochemical; conditions: cytosolic fractions of OC3-IV2 cells; isoplumbagin 5 μM and 10 μM, menadione 1X and 2X
# T1 construct: endogenous in cells; host or cells: OC3-IV2 (human oral squamous cell carcinoma), cytosolic fraction / lysate supernatant
# Procedure: FIG. 4 proves that isoplumbagin is a substrate of NQO1. The cytosolic fractions of OC3-IV2 cells were used for the NQO1 enzymatic activity assay. The NQO1 enzyme activity was calculated by measuring the simultaneous reduction of menadione or isoplumbagin with cofactor NADH and WST1 (a highly sensitive tetrazolium reagent) which leads to increased absorbance at 450 nm. NQO1 activity assay kit (#ab184867) was purchased from Abcam (Cambridge, Mass., USA). OC3-IV2 cells were lysed with 1X extraction buffer containing 1 mM phenylmethylsulfonyl fluoride (PMSF) for 15 min on ice, and then centrifuged at 17,000×g at 4° C. for 20 min. The supernatant was collected and then the protein concentration of each sample was determined by BCA assays (Santa Cruz Biotechnology). Diluted sample and reaction buffer were added into 96-wells plate containing menadione (1X and 2X) or different concentrations of isoplumbagin (5 μM and 10 μM) with cofactor NADH and WST1. The absorbance of reduced WST1 was measured at 450 nm wavelengths by a spectrophotometer. Data from three independent experiments are presented as mean ±SEM (*P<0.05 compared with no substrate, paired Student's t-test).
# [2] = tested on: oral squamous cell carcinoma cells (OC3-IV2); assay: Mitochondrial morphology and distribution by immunofluorescence staining, OC3-IV2; assay type: cell-based, human; conditions: 1 μM or 2.5 μM, 24 hours, anti-TOM20 staining
# Procedure: The effects of isoplumbagin on mitochondrial morphology and distribution of OC3-IV2, U87, H1299 and PC3 cell lines were measured by immunofluorescence staining After OC3-IV2, U87, H1299, and PC3 cells were treated with DMSO, 1 μM, or 2.5 μM isoplumbagin for 24 hours, cells were fixed by 4% (v/v) paraformaldehyde and permeabilized by 0.1% (v/v) Triton X-100. Cells were incubated in blocking buffer containing 1% bovine serum albumin. After blocking, cells were incubated overnight with indicated primary antibodies against TOM20 (a mitochondria marker, sc-11415, Santa Cruz), and then incubated with Alexa Fluor 488-conjugated secondary antibodies (A11001, Invitrogen). Nucleus was stained with DAPI, actin was stained with rhodamine phalloidin (A12379, Invitrogen) and cells were mounted using Prolong Gold reagent (P36930, Invitrogen). 63 images were taken by LSM800 confocal microscopes (Zeiss).
# FIGS. 5A-5D show the effect of isoplumbagin on mitochondrial morphogenesis and distribution of oral squamous cell carcinoma cells (OC3-IV2), human primary glioblastoma cells (U87), human non-small cell lung carcinoma cells (H1299) and human prostate cancer cells (PC3). Cells treated with either solvent control (DMSO) or isoplumbagin were determined by immunofluorescence staining using anti-TOM20 (mitochondria, green) antibody, rhodamine phalloidin (actin, red) and DAPI (nucleus, blue). […]
# [3] = tested on: oral squamous cell carcinoma cells (OC3-IV2); assay: Oxygen consumption rate in intact cells (O2k Oxygraph); assay type: cell-based, human; conditions: 2.5 μM, one independent experiment
# Procedure: Oxygen consumption rate (OCR) in intact cells suspension was measured by O2k Oxygraph (Oroboros Instruments). DMSO or 2.5 μM isoplumbagin treated cells were detached from the plate by trypsinization and suspended at 5×10^5 cells/ml in DMEM/KSFM medium supplemented with 10% FBS into the O2k chambers. Oxygen consumption rate of DMSO or isoplumbagin treated cells samples were measured by adding 0.5 μM oligomycin, 0.5 μM FCCP, 1 μM rotenone and 1 μM antimycin A.
# FIGS. 6A and 6B show the inhibitory effect of isoplumbagin on mitochondrial function and complex IV activity of oral squamous cell carcinoma cells (OC3-IV2). Oxygen consumption rate (OCR) of OC3-IV2 cells treated with DMSO (as control) or 2.5 μM isoplumbagin were measured by Oroboros instruments (FIG. 6A). […] OC3-IV2 cells treated with DMSO or 2.5 μM isoplumbagin were permeabilized with 5 μM digitonin (Dig) and added indicated substrates and inhibitors, and then mitochondria complex I/IV activity were determined by Oroboros instruments (FIG. 6B). Glu/Mal: glutamate (10 mM) and malate (2 mM), ADP (5 mM), Omy: oligomycin (0.5 μM), FCCP (0.5 nM), Rot: rotenone (1 μM), Ama: antimycin A (2 μM), TMPD: tetramethyl-p-phenylenediamine (0.1 mM), Asc: ascorbate (0.4 mM) and NaN3 5 mM. Data from three independent experiments are presented as mean ±SEM (*P<0.05, paired Student's t-test).
# T1 sequence (P15559 whole entry): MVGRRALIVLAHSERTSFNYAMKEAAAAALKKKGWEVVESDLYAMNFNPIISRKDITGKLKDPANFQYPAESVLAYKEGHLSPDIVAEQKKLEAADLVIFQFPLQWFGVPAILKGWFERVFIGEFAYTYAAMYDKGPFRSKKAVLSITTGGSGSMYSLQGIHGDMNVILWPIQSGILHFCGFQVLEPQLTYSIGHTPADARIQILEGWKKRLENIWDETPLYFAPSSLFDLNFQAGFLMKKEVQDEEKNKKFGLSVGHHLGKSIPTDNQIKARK
smiles,measurement,setting,value
"CC1=CC(=O)c2cccc(O)c2C1=O [isoplumbagin, 5-hydroxy-3-methyl-1,4-naphthoquinone]",cancer cells migrating through the membrane (invasion),[1],decrease significantly
same,"substrate of NQO1 (reduction with NADH and WST1, absorbance at 450 nm)",NQO1,substrates of NQO1
same,mitochondrial morphogenesis and distribution,[2],can alter the mitochondrial morphogenesis and distribution
same,mitochondrial function (oxygen consumption rate),[3],can reduce mitochondrial function
